PubChem BioAssay AID1259407 (Chemical Carcinogenesis Research Information System (CCRIS), 2018)
Activity calls are given as the source filed them. How the calls were made is not given here.

System: CCRIS mutagenicity, Ames/micronucleus/aberration tests
Assay: CCRIS mutagenicity studies
[1] = Test System: AMES SALMONELLA TYPHIMURIUM, Strain/Indicator: TA98, Metabolic Activation: HAMSTER, LIVER, S-9, AROCLOR 1254 (10%), Method: PREINCUBATION
[2] = Test System: AMES SALMONELLA TYPHIMURIUM, Strain/Indicator: TA98, Metabolic Activation: RAT, LIVER, S-9, AROCLOR 1254 (30%), Method: PREINCUBATION
[3] = Test System: AMES SALMONELLA TYPHIMURIUM, Strain/Indicator: TA98, Metabolic Activation: RAT, LIVER, S-9, AROCLOR 1254, Method: STANDARD PLATE
[4] = Test System: AMES SALMONELLA TYPHIMURIUM, Strain/Indicator: TA100, Metabolic Activation: NONE, Method: PREINCUBATION
[5] = Test System: AMES SALMONELLA TYPHIMURIUM, Strain/Indicator: TA100, Metabolic Activation: RAT, LIVER, S-9, AROCLOR 1254 (30%), Method: PREINCUBATION
[6] = Test System: AMES SALMONELLA TYPHIMURIUM, Strain/Indicator: TA100, Metabolic Activation: RAT, LIVER, S-9, AROCLOR 1254, Method: STANDARD PLATE
[7] = Test System: AMES SALMONELLA TYPHIMURIUM, Strain/Indicator: TA98, Metabolic Activation: NONE, Method: STANDARD PLATE
[8] = Test System: AMES SALMONELLA TYPHIMURIUM, Strain/Indicator: TA100, Metabolic Activation: NONE, Method: STANDARD PLATE

Structure (SMILES): c1ccc2c(c1)ccc1cc3c(ccc4ccccc43)cc12
- mutagenic call (Test System: AMES SALMONELLA TYPHIMURIUM, Strain/Indicator: TA98, Metabolic Activation: HAMSTER, LIVER, S-9, AROCLOR 1254 (5 OR 30%), Method: PREINCUBATION): inactive; negative
- mutagenic call [1]: active; positive
- mutagenic call [2]: active; positive
- mutagenic call [3]: active; positive
- mutagenic call (Test System: AMES SALMONELLA TYPHIMURIUM, Strain/Indicator: TA100, Metabolic Activation: HAMSTER, LIVER, S-9, AROCLOR 1254 (5, 10 OR 30%), Method: PREINCUBATION): active; positive
- mutagenic call (Test System: AMES SALMONELLA TYPHIMURIUM, Strain/Indicator: TA100, Metabolic Activation: MOUSE, LIVER, S-9, 3-METHYLCHOLANTHRENE, Method: STANDARD PLATE): active; positive
- mutagenic call (Test System: AMES SALMONELLA TYPHIMURIUM, Strain/Indicator: TA100, Metabolic Activation: MOUSE, LIVER, S-10, AROCLOR 1254): active; positive
- mutagenic call [4]: inactive; negative
- mutagenic call [5]: active; positive
- mutagenic call [6]: active; positive
- mutagenic call (Test System: AMES SALMONELLA TYPHIMURIUM, Strain/Indicator: TA1537, Metabolic Activation: RAT, LIVER, S-9, AROCLOR 1254, Method: STANDARD PLATE): active; positive
- mutagenic call (Test System: CHINESE HAMSTER V-79, Strain/Indicator: V-79/6-THIOGUANINE, Metabolic Activation: RAT, LIVER, S-9, PHENOBARBITAL, Method: STANDARD PLATE): active; positive
- mutagenic call (Test System: CHINESE HAMSTER V-79, Strain/Indicator: V-79/OUABAIN, Metabolic Activation: CELL-MEDIATED, Method: STANDARD PLATE): active; positive

Structure (SMILES): Nc1nc(N)nc(-c2ccc([N+](=O)[O-])o2)n1
- mutagenic call (Test System: AMES SALMONELLA TYPHIMURIUM, Strain/Indicator: TA100, Metabolic Activation: RAT, LIVER, S-9, KC500 OR PHENOBARBITAL, Method: LIQUID SUSPENSION): active; positive

Structure (SMILES): CC[C@@H](CO)NCCN[C@@H](CC)CO
- mutagenic call [7]: inactive; negative
- mutagenic call (Test System: AMES SALMONELLA TYPHIMURIUM, Strain/Indicator: TA98, Metabolic Activation: S-9, Method: STANDARD PLATE): inactive; negative
- mutagenic call [8]: inactive; negative
- mutagenic call (Test System: AMES SALMONELLA TYPHIMURIUM, Strain/Indicator: TA100, Metabolic Activation: S-9, Method: STANDARD PLATE): inactive; negative

Structure (SMILES): COc1cc(NS(C)(=O)=O)ccc1Nc1c2ccccc2nc2cc(N=[N+]=[N-])ccc12
- mutagenic call (Test System: AMES SALMONELLA TYPHIMURIUM, Strain/Indicator: TA1537, Metabolic Activation: NONE, Method: STANDARD PLATE): active; positive

Structure (SMILES): Oc1c(Cl)ccc(Cl)c1Cl
- mutagenic call (End Point: IN VITRO CHROMOSOMAL ABERRATIONS, Test System: CHINESE HAMSTER LUNG CELLS (CHL), Metabolic Activation: RAT, LIVER, S-9, KC-400): active; positive (structural changes)
- mutagenic call (End Point: IN VITRO CHROMOSOMAL ABERRATIONS, Test System: CHINESE HAMSTER OVARY CELLS (CHO), Metabolic Activation: NONE): active; positive (structural changes)
- mutagenic call (End Point: IN VITRO CHROMOSOMAL ABERRATIONS, Test System: CHINESE HAMSTER OVARY CELLS (CHO), Metabolic Activation: RAT, LIVER, S-9, AROCLOR 1254): active; positive (structural changes)
- mutagenic call (Test System: AMES SALMONELLA TYPHIMURIUM, Strain/Indicator: TA97, Metabolic Activation: HAMSTER, LIVER, S-9, AROCLOR 1254 (10%), Method: PREINCUBATION): inactive; negative
- mutagenic call (Test System: AMES SALMONELLA TYPHIMURIUM, Strain/Indicator: TA97, Metabolic Activation: HAMSTER, LIVER, S-9, AROCLOR 1254 (30%), Method: PREINCUBATION): inactive; negative
- mutagenic call (Test System: AMES SALMONELLA TYPHIMURIUM, Strain/Indicator: TA97, Metabolic Activation: NONE, Method: PREINCUBATION): inactive; negative
- mutagenic call (Test System: AMES SALMONELLA TYPHIMURIUM, Strain/Indicator: TA97, Metabolic Activation: NONE, Method: STANDARD PLATE): inactive; negative
- mutagenic call (Test System: AMES SALMONELLA TYPHIMURIUM, Strain/Indicator: TA97, Metabolic Activation: RAT, LIVER, S-9, AROCLOR 1254 (10%), Method: PREINCUBATION): inactive; negative
- mutagenic call (Test System: AMES SALMONELLA TYPHIMURIUM, Strain/Indicator: TA97, Metabolic Activation: RAT, LIVER, S-9, AROCLOR 1254 (30%), Method: PREINCUBATION): inactive; negative
- mutagenic call (Test System: AMES SALMONELLA TYPHIMURIUM, Strain/Indicator: TA97, Metabolic Activation: RAT, LIVER, S-9, AROCLOR 1254, Method: STANDARD PLATE): inactive; negative
- mutagenic call [1]: inactive; negative
- mutagenic call (Test System: AMES SALMONELLA TYPHIMURIUM, Strain/Indicator: TA98, Metabolic Activation: HAMSTER, LIVER, S-9, AROCLOR 1254 (30%), Method: PREINCUBATION): inactive; negative
- mutagenic call (Test System: AMES SALMONELLA TYPHIMURIUM, Strain/Indicator: TA98, Metabolic Activation: NONE, Method: PREINCUBATION): inactive; negative
- mutagenic call [7]: inactive; negative
- mutagenic call (Test System: AMES SALMONELLA TYPHIMURIUM, Strain/Indicator: TA98, Metabolic Activation: RAT, LIVER, S-9, AROCLOR 1254 (10%), Method: PREINCUBATION): inactive; negative
- mutagenic call [2]: inactive; negative
- mutagenic call [3]: active; positive
- mutagenic call (Test System: AMES SALMONELLA TYPHIMURIUM, Strain/Indicator: TA100, Metabolic Activation: HAMSTER, LIVER, S-9, AROCLOR 1254 (10%), Method: PREINCUBATION): inactive; negative
- mutagenic call (Test System: AMES SALMONELLA TYPHIMURIUM, Strain/Indicator: TA100, Metabolic Activation: HAMSTER, LIVER, S-9, AROCLOR 1254 (30%), Method: PREINCUBATION): inactive; negative
- mutagenic call [4]: inactive; negative
- mutagenic call [8]: inactive; negative
- mutagenic call (Test System: AMES SALMONELLA TYPHIMURIUM, Strain/Indicator: TA100, Metabolic Activation: RAT, LIVER, S-9, AROCLOR 1254 (10%), Method: PREINCUBATION): inactive; negative
- mutagenic call [5]: inactive; negative
- mutagenic call [6]: inactive; negative
- mutagenic call (Test System: AMES SALMONELLA TYPHIMURIUM, Strain/Indicator: TA104, Metabolic Activation: NONE, Method: STANDARD PLATE): inactive; negative
- mutagenic call (Test System: AMES SALMONELLA TYPHIMURIUM, Strain/Indicator: TA104, Metabolic Activation: RAT, LIVER, S-9, AROCLOR 1254, Method: STANDARD PLATE): inactive; negative
- mutagenic call (Test System: AMES SALMONELLA TYPHIMURIUM, Strain/Indicator: TA1535, Metabolic Activation: HAMSTER, LIVER, S-9, AROCLOR 1254 (10%), Method: PREINCUBATION): inactive; negative
- mutagenic call (Test System: AMES SALMONELLA TYPHIMURIUM, Strain/Indicator: TA1535, Metabolic Activation: HAMSTER, LIVER, S-9, AROCLOR 1254 (30%), Method: PREINCUBATION): inactive; negative
- mutagenic call (Test System: AMES SALMONELLA TYPHIMURIUM, Strain/Indicator: TA1535, Metabolic Activation: NONE, Method: PREINCUBATION): inactive; negative
- mutagenic call (Test System: AMES SALMONELLA TYPHIMURIUM, Strain/Indicator: TA1535, Metabolic Activation: RAT, LIVER, S-9, AROCLOR 1254 (10%), Method: PREINCUBATION): inactive; negative
- mutagenic call (Test System: AMES SALMONELLA TYPHIMURIUM, Strain/Indicator: TA1535, Metabolic Activation: RAT, LIVER, S-9, AROCLOR 1254 (30%), Method: PREINCUBATION): inactive; negative
- mutagenic call (Test System: AMES SALMONELLA TYPHIMURIUM, Strain/Indicator: TA1537, Metabolic Activation: HAMSTER, LIVER, S-9, AROCLOR 1254 (30%), Method: PREINCUBATION): inactive; negative
- mutagenic call (Test System: AMES SALMONELLA TYPHIMURIUM, Strain/Indicator: TA1537, Metabolic Activation: NONE, Method: PREINCUBATION): inactive; negative
- mutagenic call (Test System: AMES SALMONELLA TYPHIMURIUM, Strain/Indicator: TA1537, Metabolic Activation: RAT, LIVER, S-9, AROCLOR 1254 (30%), Method: PREINCUBATION): inactive; negative

Structure (SMILES): Cn1c(N=[N+]=[N-])nc2ccc3ccccc3c21
- mutagenic call (Test System: AMES SALMONELLA TYPHIMURIUM, Strain/Indicator: TA98(1,8-DNP6), Metabolic Activation: NONE, Method: STANDARD PLATE): active; positive
- mutagenic call [7]: active; positive
